Assay results: US20040091853A1 (priority 2003, published 2004)
Where two headings read alike, the source gives them in different places.

Legend:
[1] = tested on: pNL4-3-derived HIV reporter particles; assay type: cell-based
[2] = tested on: pNL4-3-derived HIV reporter particles; assay type: cell-based; conditions: particles made in presence of 1 μM inhibitor; supernatants tested on target cells
[3] = tested on: VSV-G-enveloped particles; assay type: cell-based, HIV

| Compound | effect on ability of HIV reporter particle to transfer β-lactamase to target cells [1] | percentage of blue cells [1] | percentage of blue cells [2] | blocking of transfer of β-lactamase [1] | blue cells in presence versus absence of NH4Cl [3] | percentage of blue cells [3] | blocking of transfer of β-lactamase to target cells [1] | blocking of transfer of β-lactamase to target cells [3] |
| --- | --- | --- | --- | --- | --- | --- | --- | --- |
| CCc1cc(NCc2nc3c(Cl)ccc(Cl)c3o2)c(O)nc1C [L-697661] | had no effect | 10-20% blue cells | ˜10-20% blue cells | – | – | – | – | – |
| Cl.N [NH4Cl] | – | ˜10% blue cells | – | did not block transfer of β-lactamase | significantly fewer blue cells | ˜10% blue cells | – | – |
| enfuvirtide | – | – | – | – | – | – | blocked the transfer of β-lactamase to target cells | neither agent blocked transfer of β-lactamase |
